Measured values from patent US20060216238A1, “Compositions and methods for targeting or imaging a tissue in a vertebrate subject” (priority 2005, published 2006).

Columns and labels:
[1] = RT-PCR detection of CPMV RNA in tissues of mice inoculated i.v.; details: for CPMV RNA detected in bone marrow, mice positive/examined / CPMV RNA detected in brain, mice positive/examined / CPMV RNA detected in duodenum, mice positive/examined / CPMV RNA detected in ileum, mice positive/examined / CPMV RNA detected in jejunum, mice positive/examined / CPMV RNA detected in kidney, mice positive/examined / CPMV RNA detected in liver, mice positive/examined / CPMV RNA detected in lung, mice positive/examined / CPMV RNA detected in spleen, mice positive/examined / CPMV RNA detected in stomach, mice positive/examined: i.v.
[2] = RT-PCR detection of CPMV RNA in tissues of mice inoculated orally (gavage); details: for CPMV RNA detected in bone marrow, mice positive/examined / CPMV RNA detected in brain, mice positive/examined / CPMV RNA detected in duodenum, mice positive/examined / CPMV RNA detected in ileum, mice positive/examined / CPMV RNA detected in jejunum, mice positive/examined / CPMV RNA detected in kidney, mice positive/examined / CPMV RNA detected in liver, mice positive/examined / CPMV RNA detected in lung, mice positive/examined / CPMV RNA detected in spleen, mice positive/examined / CPMV RNA detected in stomach, mice positive/examined: oral
[3] = 1 g infected leaves, day 1 post ingestion

cowpea mosaic virus [CPMV]
CPMV RNA in any tissues examined ([1]; day 5 or day 7 post-inoculation): not detected
CPMV RNA detected in bone marrow, mice positive/examined ([1]; D1, Non-perfused): 3/3
CPMV RNA detected in brain, mice positive/examined ([1]; D1, Non-perfused): 3/3
CPMV RNA detected in duodenum, mice positive/examined ([1]; D1, Non-perfused): 3/3
CPMV RNA detected in ileum, mice positive/examined ([1]; D1, Non-perfused): 3/3
CPMV RNA detected in jejunum, mice positive/examined ([1]; D1, Non-perfused): 3/3
CPMV RNA detected in kidney, mice positive/examined ([1]; D1, Non-perfused): 3/3
CPMV RNA detected in liver, mice positive/examined ([1]; D1, Non-perfused): 2/3
CPMV RNA detected in lung, mice positive/examined ([1]; D1, Non-perfused): 3/3
CPMV RNA detected in spleen, mice positive/examined ([1]; D1, Non-perfused): 3/3
CPMV RNA detected in stomach, mice positive/examined ([1]; D1, Non-perfused): 3/3
CPMV RNA detected in bone marrow, mice positive/examined ([1]; D1, Perfused): 3/3
CPMV RNA detected in brain, mice positive/examined ([1]; D1, Perfused): 3/3
CPMV RNA detected in duodenum, mice positive/examined ([1]; D1, Perfused): 2/3
CPMV RNA detected in ileum, mice positive/examined ([1]; D1, Perfused): 3/3
CPMV RNA detected in jejunum, mice positive/examined ([1]; D1, Perfused): 3/3
CPMV RNA detected in kidney, mice positive/examined ([1]; D1, Perfused): 3/3
CPMV RNA detected in liver, mice positive/examined ([1]; D1, Perfused): 3/3
CPMV RNA detected in lung, mice positive/examined ([1]; D1, Perfused): 3/3
CPMV RNA detected in spleen, mice positive/examined ([1]; D1, Perfused): 3/3
CPMV RNA detected in stomach, mice positive/examined ([1]; D1, Perfused): 3/3
CPMV RNA detected in bone marrow, mice positive/examined ([1]; D2, Non-perfused): 3/3
CPMV RNA detected in brain, mice positive/examined ([1]; D2, Non-perfused): 3/3
CPMV RNA detected in duodenum, mice positive/examined ([1]; D2, Non-perfused): 3/3
CPMV RNA detected in ileum, mice positive/examined ([1]; D2, Non-perfused): 3/3
CPMV RNA detected in jejunum, mice positive/examined ([1]; D2, Non-perfused): 3/3
CPMV RNA detected in kidney, mice positive/examined ([1]; D2, Non-perfused): 3/3
CPMV RNA detected in liver, mice positive/examined ([1]; D2, Non-perfused): 3/3
CPMV RNA detected in lung, mice positive/examined ([1]; D2, Non-perfused): 3/3
CPMV RNA detected in spleen, mice positive/examined ([1]; D2, Non-perfused): 3/3
CPMV RNA detected in stomach, mice positive/examined ([1]; D2, Non-perfused): 3/3
CPMV RNA detected in bone marrow, mice positive/examined ([1]; D2, Perfused): 3/3
CPMV RNA detected in brain, mice positive/examined ([1]; D2, Perfused): 2/3
CPMV RNA detected in duodenum, mice positive/examined ([1]; D2, Perfused): 3/3
CPMV RNA detected in ileum, mice positive/examined ([1]; D2, Perfused): 3/3
CPMV RNA detected in jejunum, mice positive/examined ([1]; D2, Perfused): 3/3
CPMV RNA detected in kidney, mice positive/examined ([1]; D2, Perfused): 3/3
CPMV RNA detected in liver, mice positive/examined ([1]; D2, Perfused): 3/3
CPMV RNA detected in lung, mice positive/examined ([1]; D2, Perfused): 3/3
CPMV RNA detected in spleen, mice positive/examined ([1]; D2, Perfused): 3/3
CPMV RNA detected in stomach, mice positive/examined ([1]; D2, Perfused): 3/3
CPMV RNA detected in bone marrow, mice positive/examined ([1]; D3, Non-perfused): 3/3
CPMV RNA detected in brain, mice positive/examined ([1]; D3, Non-perfused): 3/3
CPMV RNA detected in duodenum, mice positive/examined ([1]; D3, Non-perfused): 2/3
CPMV RNA detected in ileum, mice positive/examined ([1]; D3, Non-perfused): 3/3
CPMV RNA detected in jejunum, mice positive/examined ([1]; D3, Non-perfused): 3/3
CPMV RNA detected in kidney, mice positive/examined ([1]; D3, Non-perfused): 3/3
CPMV RNA detected in liver, mice positive/examined ([1]; D3, Non-perfused): 3/3
CPMV RNA detected in lung, mice positive/examined ([1]; D3, Non-perfused): 3/3
CPMV RNA detected in spleen, mice positive/examined ([1]; D3, Non-perfused): 3/3
CPMV RNA detected in stomach, mice positive/examined ([1]; D3, Non-perfused): 1/3
CPMV RNA detected in bone marrow, mice positive/examined ([1]; D3, Perfused): 3/3
CPMV RNA detected in brain, mice positive/examined ([1]; D3, Perfused): 3/3
CPMV RNA detected in duodenum, mice positive/examined ([1]; D3, Perfused): 3/3
CPMV RNA detected in ileum, mice positive/examined ([1]; D3, Perfused): 3/3
CPMV RNA detected in jejunum, mice positive/examined ([1]; D3, Perfused): 3/3
CPMV RNA detected in kidney, mice positive/examined ([1]; D3, Perfused): 3/3
CPMV RNA detected in liver, mice positive/examined ([1]; D3, Perfused): 3/3
CPMV RNA detected in lung, mice positive/examined ([1]; D3, Perfused): 3/3
CPMV RNA detected in spleen, mice positive/examined ([1]; D3, Perfused): 3/3
CPMV RNA detected in stomach, mice positive/examined ([1]; D3, Perfused): 3/3
CPMV RNA in the blood ([2]; oral gavage, 4 hours, 1 day, 2 days, 3 days): detected in the blood of all orally gavaged mice
CPMV RNA detected in bone marrow, mice positive/examined ([2]; D1, Non-perfused): 3/3
CPMV RNA detected in brain, mice positive/examined ([2]; D1, Non-perfused): 3/3
CPMV RNA detected in duodenum, mice positive/examined ([2]; D1, Non-perfused): 3/3
CPMV RNA detected in ileum, mice positive/examined ([2]; D1, Non-perfused): 3/3
CPMV RNA detected in jejunum, mice positive/examined ([2]; D1, Non-perfused): 3/3
CPMV RNA detected in kidney, mice positive/examined ([2]; D1, Non-perfused): 3/3
CPMV RNA detected in liver, mice positive/examined ([2]; D1, Non-perfused): 3/3
CPMV RNA detected in lung, mice positive/examined ([2]; D1, Non-perfused): 3/3
CPMV RNA detected in spleen, mice positive/examined ([2]; D1, Non-perfused): 3/3
CPMV RNA detected in stomach, mice positive/examined ([2]; D1, Non-perfused): 3/3
CPMV RNA detected in bone marrow, mice positive/examined ([2]; D1, Perfused): 2/3
CPMV RNA detected in brain, mice positive/examined ([2]; D1, Perfused): 3/3
CPMV RNA detected in duodenum, mice positive/examined ([2]; D1, Perfused): 3/3
CPMV RNA detected in ileum, mice positive/examined ([2]; D1, Perfused): 3/3
CPMV RNA detected in jejunum, mice positive/examined ([2]; D1, Perfused): 3/3
CPMV RNA detected in kidney, mice positive/examined ([2]; D1, Perfused): 3/3
CPMV RNA detected in liver, mice positive/examined ([2]; D1, Perfused): 3/3
CPMV RNA detected in lung, mice positive/examined ([2]; D1, Perfused): 3/3
CPMV RNA detected in spleen, mice positive/examined ([2]; D1, Perfused): 3/3
CPMV RNA detected in stomach, mice positive/examined ([2]; D1, Perfused): 2/3
CPMV RNA detected in bone marrow, mice positive/examined ([2]; D2, Non-perfused): 0/3
CPMV RNA detected in brain, mice positive/examined ([2]; D2, Non-perfused): 1/3
CPMV RNA detected in duodenum, mice positive/examined ([2]; D2, Non-perfused): 1/3
CPMV RNA detected in ileum, mice positive/examined ([2]; D2, Non-perfused): 3/3
CPMV RNA detected in jejunum, mice positive/examined ([2]; D2, Non-perfused): 0/3
CPMV RNA detected in kidney, mice positive/examined ([2]; D2, Non-perfused): 0/3
CPMV RNA detected in liver, mice positive/examined ([2]; D2, Non-perfused): 3/3
CPMV RNA detected in lung, mice positive/examined ([2]; D2, Non-perfused): 1/3
CPMV RNA detected in spleen, mice positive/examined ([2]; D2, Non-perfused): 1/3
CPMV RNA detected in stomach, mice positive/examined ([2]; D2, Non-perfused): 1/3
CPMV RNA detected in bone marrow, mice positive/examined ([2]; D2, Perfused): 0/3
CPMV RNA detected in brain, mice positive/examined ([2]; D2, Perfused): 1/3
CPMV RNA detected in duodenum, mice positive/examined ([2]; D2, Perfused): 1/3
CPMV RNA detected in ileum, mice positive/examined ([2]; D2, Perfused): 1/3
CPMV RNA detected in jejunum, mice positive/examined ([2]; D2, Perfused): 1/3
CPMV RNA detected in kidney, mice positive/examined ([2]; D2, Perfused): 3/3
CPMV RNA detected in liver, mice positive/examined ([2]; D2, Perfused): 3/3
CPMV RNA detected in lung, mice positive/examined ([2]; D2, Perfused): 2/3
CPMV RNA detected in spleen, mice positive/examined ([2]; D2, Perfused): 0/3
CPMV RNA detected in stomach, mice positive/examined ([2]; D2, Perfused): 1/3
CPMV RNA detected in bone marrow, mice positive/examined ([2]; D3, Non-perfused): 1/3
CPMV RNA detected in brain, mice positive/examined ([2]; D3, Non-perfused): 3/3
CPMV RNA detected in duodenum, mice positive/examined ([2]; D3, Non-perfused): 2/3
CPMV RNA detected in ileum, mice positive/examined ([2]; D3, Non-perfused): 2/3
CPMV RNA detected in jejunum, mice positive/examined ([2]; D3, Non-perfused): 2/3
CPMV RNA detected in kidney, mice positive/examined ([2]; D3, Non-perfused): 1/3
CPMV RNA detected in liver, mice positive/examined ([2]; D3, Non-perfused): 2/2
CPMV RNA detected in lung, mice positive/examined ([2]; D3, Non-perfused): 1/3
CPMV RNA detected in spleen, mice positive/examined ([2]; D3, Non-perfused): 0/3
CPMV RNA detected in stomach, mice positive/examined ([2]; D3, Non-perfused): 3/3
CPMV RNA detected in bone marrow, mice positive/examined ([2]; D3, Perfused): 0/3
CPMV RNA detected in brain, mice positive/examined ([2]; D3, Perfused): 2/3
CPMV RNA detected in duodenum, mice positive/examined ([2]; D3, Perfused): 0/2
CPMV RNA detected in ileum, mice positive/examined ([2]; D3, Perfused): 1/3
CPMV RNA detected in jejunum, mice positive/examined ([2]; D3, Perfused): 0/2
CPMV RNA detected in kidney, mice positive/examined ([2]; D3, Perfused): 2/3
CPMV RNA detected in liver, mice positive/examined ([2]; D3, Perfused): 3/3
CPMV RNA detected in lung, mice positive/examined ([2]; D3, Perfused): 1/3
CPMV RNA detected in spleen, mice positive/examined ([2]; D3, Perfused): 0/3
CPMV RNA detected in stomach, mice positive/examined ([2]; D3, Perfused): 0/3
mice positive for CPMV RNA in kidney, duodenum, jejunum and brain [3]: 1 out of 3
mice positive for CPMV RNA in spleen, liver, lungs, stomach, ileum and bone marrow [3]: 2 out of 3
persistence of CPMV RNA in tissues (ingestion of infected leaves): did not persist in tissues past the first day
